According to ChEMBL document CHEMBL1201862, “PubChem BioAssay data set” (2004):
The source made the active and inactive calls.

How the values were obtained:
[1] = tested on: Escherichia coli; experiment: microbe, parasite or virus in culture
[2] = microbe, parasite or virus in culture; type: functional; settings: Mycobacterium tuberculosis
[3] = target: Induced myeloid leukemia cell differentiation protein Mcl-1 (Homo sapiens, UniProt Q07820); type: functional
[4] = THP-1 cell cytotoxicity, dose response, cytotoxicity control for non-replicating M. tuberculosis project (AID 489025); type: functional
[5] = HepG2 cell cytotoxicity, dose response, cytotoxicity control for non-replicating M. tuberculosis project (AID 489018); type: functional; settings: Mycobacterium tuberculosis
[6] = target: T1, Microphthalmia-associated transcription factor (Homo sapiens, UniProt O75030); experiment: reducers of TRPM1 reporter luminescence, concentration series – cell-based, SK-MEL-5, cherry-picked, set 3, MITF inhibitor project, dose response (AID 493073); type: functional;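 further: SK-MEL-5 melanoma cells with luciferase driven by the MITF target TRPM1 promoter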
T1 sequence (O75030 whole entry): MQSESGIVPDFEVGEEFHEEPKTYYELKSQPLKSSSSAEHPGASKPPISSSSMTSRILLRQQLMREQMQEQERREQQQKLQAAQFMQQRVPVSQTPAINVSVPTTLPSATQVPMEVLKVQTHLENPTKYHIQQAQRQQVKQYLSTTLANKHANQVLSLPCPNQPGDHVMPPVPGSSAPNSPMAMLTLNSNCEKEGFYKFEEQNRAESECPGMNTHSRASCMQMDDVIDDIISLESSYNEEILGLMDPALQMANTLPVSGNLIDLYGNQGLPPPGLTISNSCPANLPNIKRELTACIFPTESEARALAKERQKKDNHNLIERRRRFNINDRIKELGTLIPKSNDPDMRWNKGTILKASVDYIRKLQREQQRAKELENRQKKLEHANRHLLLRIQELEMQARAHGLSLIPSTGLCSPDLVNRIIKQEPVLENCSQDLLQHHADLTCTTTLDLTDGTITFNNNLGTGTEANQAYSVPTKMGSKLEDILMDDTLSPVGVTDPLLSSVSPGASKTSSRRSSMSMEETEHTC

[7] = cells; type: functional
[8] = target: T2, Replicative DNA helicase DnaB (Mycobacterium tuberculosis, UniProt P9WMR3); experiment: DnaB intein splicing inhibitors, dose response, biochemical, cell-free fluorescence (AID 449749); type: functional
T2 sequence (P9WMR3 whole entry): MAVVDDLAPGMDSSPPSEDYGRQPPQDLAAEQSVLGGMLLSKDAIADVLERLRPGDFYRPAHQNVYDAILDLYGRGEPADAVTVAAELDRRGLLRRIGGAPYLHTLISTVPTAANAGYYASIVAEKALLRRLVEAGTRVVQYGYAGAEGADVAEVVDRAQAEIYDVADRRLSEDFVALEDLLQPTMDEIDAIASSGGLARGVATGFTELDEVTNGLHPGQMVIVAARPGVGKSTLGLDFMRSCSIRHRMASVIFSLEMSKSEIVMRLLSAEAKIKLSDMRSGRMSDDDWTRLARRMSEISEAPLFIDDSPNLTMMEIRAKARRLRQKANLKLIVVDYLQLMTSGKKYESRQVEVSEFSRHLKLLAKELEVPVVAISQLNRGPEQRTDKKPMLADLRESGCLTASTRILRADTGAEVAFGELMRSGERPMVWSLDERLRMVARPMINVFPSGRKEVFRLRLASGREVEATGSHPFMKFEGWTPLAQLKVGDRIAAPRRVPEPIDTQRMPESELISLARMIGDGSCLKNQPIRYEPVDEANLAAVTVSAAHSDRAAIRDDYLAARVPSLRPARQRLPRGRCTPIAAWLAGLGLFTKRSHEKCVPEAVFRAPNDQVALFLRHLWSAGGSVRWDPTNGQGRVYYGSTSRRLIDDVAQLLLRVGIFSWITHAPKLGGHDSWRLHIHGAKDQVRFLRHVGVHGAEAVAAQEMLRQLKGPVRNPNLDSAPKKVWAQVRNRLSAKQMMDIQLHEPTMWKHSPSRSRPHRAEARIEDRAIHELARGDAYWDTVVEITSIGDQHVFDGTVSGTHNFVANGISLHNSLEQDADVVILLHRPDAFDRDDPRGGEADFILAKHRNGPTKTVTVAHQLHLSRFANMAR

[9] = target: Heat shock protein HSP 90-alpha (Homo sapiens, UniProt P07900); type: functional, organism-based
[10] = target: T3, Protein RecA (Mycobacterium tuberculosis, UniProt P9WHJ3); experiment: Fluorescence Cell-Free Homogeneous Dose Retest to Identify Inhibitors of RecA-Intein Splicing Activity. [Related pubchem assays (depositor defined):AID2097, AID2223, AID489010, AID492950]; type: functional
T3 sequence (P9WHJ3 whole entry): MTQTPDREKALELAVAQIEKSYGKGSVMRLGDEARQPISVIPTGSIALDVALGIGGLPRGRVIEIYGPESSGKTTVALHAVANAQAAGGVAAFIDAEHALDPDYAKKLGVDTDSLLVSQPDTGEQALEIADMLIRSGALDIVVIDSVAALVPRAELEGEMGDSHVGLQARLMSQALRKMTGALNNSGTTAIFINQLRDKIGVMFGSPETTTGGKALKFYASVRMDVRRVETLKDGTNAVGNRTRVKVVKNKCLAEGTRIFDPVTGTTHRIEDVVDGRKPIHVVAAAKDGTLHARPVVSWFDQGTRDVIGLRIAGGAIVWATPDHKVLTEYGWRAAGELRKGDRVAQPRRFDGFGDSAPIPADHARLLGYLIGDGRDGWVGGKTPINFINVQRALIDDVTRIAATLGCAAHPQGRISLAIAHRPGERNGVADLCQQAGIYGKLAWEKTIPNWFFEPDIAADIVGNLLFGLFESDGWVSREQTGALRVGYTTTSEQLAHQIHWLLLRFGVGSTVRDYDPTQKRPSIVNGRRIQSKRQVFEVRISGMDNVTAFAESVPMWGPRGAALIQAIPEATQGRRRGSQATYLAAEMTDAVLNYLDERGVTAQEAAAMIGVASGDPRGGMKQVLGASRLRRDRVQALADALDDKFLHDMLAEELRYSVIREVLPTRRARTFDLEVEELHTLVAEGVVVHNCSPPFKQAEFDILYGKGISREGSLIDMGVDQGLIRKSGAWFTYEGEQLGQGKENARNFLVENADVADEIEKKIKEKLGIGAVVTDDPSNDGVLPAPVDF

[11] = tested on: HEK293; experiment: cells; settings: Homo sapiens
[12] = tested on: HEK293; experiment: cells; settings: Homo sapiens; remark: listed apart in the source
[13] = tested on: HeLa; experiment: ATP-based viability loss in HeLa cells – cell-based, CellTiter-Glo luminescence, cherry-pick samples, cytotoxicity control for MITF activator project, dose response (AID 540259); type: functional; settings: Homo sapiens
[14] = target: T4, Sentrin-specific protease 8 (Homo sapiens, UniProt Q96LD8); experiment: inhibition of human SENP8 cleavage activity – biochemical, luminescence, SAR follow-up (AID 504501); type: functional
T4 sequence (Q96LD8 whole entry): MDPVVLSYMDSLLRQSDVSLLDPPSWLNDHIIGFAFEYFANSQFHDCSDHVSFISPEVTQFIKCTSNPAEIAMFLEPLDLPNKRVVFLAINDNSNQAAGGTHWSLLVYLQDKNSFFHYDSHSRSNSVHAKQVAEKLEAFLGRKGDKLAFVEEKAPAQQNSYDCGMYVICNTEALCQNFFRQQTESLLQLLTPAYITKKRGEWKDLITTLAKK

[15] = target: T5, Caspase-3 (Homo sapiens, UniProt P42574); experiment: SAR Analysis of small molecule inhibitors of Sentrin-specific proteases (SENPs) using a Caspase-3 Selectivity assay. [Related pubchem assays (depositor defined):AID2540, AID2599, AID434973, AID489001]; type: functional
T5 sequence (P42574 whole entry): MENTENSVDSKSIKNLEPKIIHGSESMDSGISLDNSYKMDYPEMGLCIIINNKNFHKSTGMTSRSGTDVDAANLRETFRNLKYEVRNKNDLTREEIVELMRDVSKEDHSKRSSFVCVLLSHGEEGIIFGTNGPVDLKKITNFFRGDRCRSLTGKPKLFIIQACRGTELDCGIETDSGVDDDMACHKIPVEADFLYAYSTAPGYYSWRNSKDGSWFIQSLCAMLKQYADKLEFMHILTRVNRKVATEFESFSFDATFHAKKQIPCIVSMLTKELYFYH

[16] = target: T6, Sentrin-specific protease 6 (Homo sapiens, UniProt Q9GZR1); experiment: SAR Analysis of small molecule inhibitors of Sentrin-specific protease 6 (SENP6) using a Luminescent assay. [Related pubchem assays (depositor defined):AID2582, AID2599]; type: functional
T6 sequence (Q9GZR1 whole entry): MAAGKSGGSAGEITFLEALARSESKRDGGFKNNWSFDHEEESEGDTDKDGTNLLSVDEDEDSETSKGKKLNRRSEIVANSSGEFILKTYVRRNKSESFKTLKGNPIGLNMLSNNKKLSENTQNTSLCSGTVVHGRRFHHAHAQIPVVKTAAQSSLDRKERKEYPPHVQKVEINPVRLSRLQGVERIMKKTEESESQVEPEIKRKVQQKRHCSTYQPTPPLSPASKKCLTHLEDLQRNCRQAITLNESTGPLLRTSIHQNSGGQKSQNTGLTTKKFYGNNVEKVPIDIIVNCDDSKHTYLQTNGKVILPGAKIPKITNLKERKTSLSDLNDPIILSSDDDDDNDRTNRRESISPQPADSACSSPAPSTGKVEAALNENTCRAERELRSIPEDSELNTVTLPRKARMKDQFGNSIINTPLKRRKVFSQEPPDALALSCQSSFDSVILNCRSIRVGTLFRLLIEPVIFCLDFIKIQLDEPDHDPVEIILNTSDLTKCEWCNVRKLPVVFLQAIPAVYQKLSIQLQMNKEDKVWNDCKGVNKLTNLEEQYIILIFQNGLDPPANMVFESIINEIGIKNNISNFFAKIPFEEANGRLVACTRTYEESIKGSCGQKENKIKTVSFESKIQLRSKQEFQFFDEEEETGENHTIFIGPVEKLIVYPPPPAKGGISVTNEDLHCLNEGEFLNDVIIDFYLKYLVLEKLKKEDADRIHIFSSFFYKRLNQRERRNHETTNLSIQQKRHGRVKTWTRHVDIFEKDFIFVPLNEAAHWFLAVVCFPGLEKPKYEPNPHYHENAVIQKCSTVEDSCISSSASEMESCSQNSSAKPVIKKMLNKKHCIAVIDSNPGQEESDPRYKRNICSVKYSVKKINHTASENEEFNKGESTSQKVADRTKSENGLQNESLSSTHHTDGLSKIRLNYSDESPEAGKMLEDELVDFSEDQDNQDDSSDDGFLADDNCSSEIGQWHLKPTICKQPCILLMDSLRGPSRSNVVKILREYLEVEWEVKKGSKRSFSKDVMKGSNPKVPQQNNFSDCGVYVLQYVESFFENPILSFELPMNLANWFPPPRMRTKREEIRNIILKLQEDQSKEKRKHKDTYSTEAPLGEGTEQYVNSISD

[17] = target: T7, Sentrin-specific protease 7 (Homo sapiens, UniProt Q9BQF6); experiment: inhibition of human SENP7 cleavage activity – biochemical, luminescence, SAR follow-up (AID 504497); type: functional
T7 sequence (Q9BQF6 whole entry): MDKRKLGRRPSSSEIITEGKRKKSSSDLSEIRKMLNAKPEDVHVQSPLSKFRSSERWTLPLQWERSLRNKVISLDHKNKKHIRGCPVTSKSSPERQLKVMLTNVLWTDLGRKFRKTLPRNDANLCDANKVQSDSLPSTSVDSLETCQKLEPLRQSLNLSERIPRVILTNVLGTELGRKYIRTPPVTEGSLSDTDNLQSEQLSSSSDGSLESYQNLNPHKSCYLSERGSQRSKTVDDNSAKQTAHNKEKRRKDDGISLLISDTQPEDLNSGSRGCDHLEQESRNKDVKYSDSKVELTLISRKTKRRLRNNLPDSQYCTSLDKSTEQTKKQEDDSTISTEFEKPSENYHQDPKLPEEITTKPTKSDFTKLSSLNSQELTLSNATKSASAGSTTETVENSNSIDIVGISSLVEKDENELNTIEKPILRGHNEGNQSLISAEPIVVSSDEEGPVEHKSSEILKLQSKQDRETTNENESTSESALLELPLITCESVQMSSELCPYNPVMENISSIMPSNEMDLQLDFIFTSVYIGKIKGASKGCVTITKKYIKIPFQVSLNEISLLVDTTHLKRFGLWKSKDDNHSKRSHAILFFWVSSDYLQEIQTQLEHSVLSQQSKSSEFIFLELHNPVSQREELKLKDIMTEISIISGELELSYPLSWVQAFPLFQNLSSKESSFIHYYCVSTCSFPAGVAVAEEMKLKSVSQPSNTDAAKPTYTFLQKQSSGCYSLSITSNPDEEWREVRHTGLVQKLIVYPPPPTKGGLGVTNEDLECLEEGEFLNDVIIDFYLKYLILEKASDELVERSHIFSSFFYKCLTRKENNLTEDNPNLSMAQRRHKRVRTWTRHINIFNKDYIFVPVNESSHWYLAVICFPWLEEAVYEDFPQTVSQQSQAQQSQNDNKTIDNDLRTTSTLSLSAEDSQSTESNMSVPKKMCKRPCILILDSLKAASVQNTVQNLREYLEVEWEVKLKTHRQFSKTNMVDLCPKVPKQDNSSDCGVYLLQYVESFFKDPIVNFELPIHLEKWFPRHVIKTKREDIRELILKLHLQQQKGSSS

Sequence of Induced myeloid leukemia cell differentiation protein Mcl-1 (Q07820 whole entry): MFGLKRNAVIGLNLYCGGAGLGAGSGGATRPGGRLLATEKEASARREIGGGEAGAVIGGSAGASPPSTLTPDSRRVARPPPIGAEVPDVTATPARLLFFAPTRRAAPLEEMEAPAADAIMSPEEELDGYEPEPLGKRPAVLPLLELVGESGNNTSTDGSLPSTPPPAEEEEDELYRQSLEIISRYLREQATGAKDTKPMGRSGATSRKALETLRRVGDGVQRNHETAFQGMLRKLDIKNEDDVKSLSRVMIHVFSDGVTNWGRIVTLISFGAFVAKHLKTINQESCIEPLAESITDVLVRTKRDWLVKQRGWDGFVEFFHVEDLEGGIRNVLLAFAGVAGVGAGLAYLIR

COc1ccc(OC2OC3COC(c4ccco4)OC3C(O)C2NC(C)=O)cc1 (stereo not given)
AC50 [1]: 32.1 µM (active)

CC(C(=O)NC1CCCC1)N1CCN(S(=O)(=O)c2ccc(C(C)(C)C)cc2)CC1 (stereo not given)
AC50 [1]: 70.4 µM (active)

Cc1ccc(CNC(=O)C2CCCN2C(=O)Nc2ccccc2)cc1 (stereo not given)
AC50 [1]: 33.2 µM (active)

O=C1Nc2ccc(Br)cc2/C1=C/C(=O)c1ccc2c(c1)OCO2
CC50 [2]: 32.2 µM (active)
IC50 [3]: 1.29 µM (active)
CC50 [4]: 11.9 µM (active)
CC50 [5]: 18.9 µM (active)
AC50 [6]: 25.5 µM (active)
IC50 [7]: 15.2 µM (active)
AC50 [8]: 36.3 µM (active)
AC50 [9]: 2.17 µM (active)
EC50 [10]: 1.46 µM (active)
EC50 [11]: > 59.6 µM (inactive)
EC50 [12]: > 59.6 µM (inactive)

CN(C1=NC(=O)/C(=C2\C(=O)Nc3ccccc32)S1)c1ccc(O)cc1
AC50 [13]: 45.4 µM (active)

N#Cc1c(NC(=O)c2cnn3cc(Br)cnc23)sc2c1CCC2
IC50 [14]: > 99 µM (inactive)
IC50 [15]: > 99 µM (inactive)
IC50 [16]: > 99 µM (inactive)
IC50 [17]: > 99 µM (inactive)

COc1ccc2[nH]c(-c3ccccc3)cc2c1
AC50 [13]: 55.1 µM (active)
